Data published in ChEMBL document CHEMBL3817822, “Design and synthesis of pyridine-pyrazole-sulfonate derivatives as potential anti-HBV agents” (Medchemcomm, 2016).

Tested on: not listed separately
Test: Selectivity index, ratio of TC50 for human HepG2(2.2.15) cells to IC50 for HBV infected in human HepG2(2.2.15) cells assessed as inhibition of HBsAg secretion
Conditions: not given

| SMILES | Selectivity Index |
| --- | --- |
| O=S(=O)(Oc1cc(-c2ccccn2)[nH]n1)c1ccc(F)cc1 | 5.53 |
| COc1ccc(S(=O)(=O)Oc2cc(CSc3ccccn3)[nH]n2)cc1 | 6.21 |
| O=[N+]([O-])c1ccc(S(=O)(=O)Oc2cc(-c3ccccn3)[nH]n2)cc1 | 6.28 |
| Cc1ccc(S(=O)(=O)Oc2cc(-c3ccccn3)[nH]n2)cc1 | 9.35 |
| O=[N+]([O-])c1ccccc1S(=O)(=O)Oc1cc(-c2ccccn2)[nH]n1 | 43.54 |
| O=[N+]([O-])c1ccc(S(=O)(=O)Oc2cc(CSc3ccccn3)[nH]n2)cc1 | 7.97 |
| O=S(=O)(Oc1cc(-c2ccccn2)[nH]n1)c1ccccc1 | 0.99 |
| O=S(=O)(Oc1cc(-c2ccccn2)[nH]n1)c1ccc(Br)cc1 | 3.85 |
| CS(=O)(=O)Oc1cc(-c2ccccn2)[nH]n1 | 3.68 |

Tested on: Hepatitis B virus
Test: Antiviral activity against HBV infected in human HepG2(2.2.15) cells assessed as inhibition of HBeAg secretion by enzyme immunoassay
Format: functional, organism-based
Conditions: not given

| SMILES | IC50 [µM] |
| --- | --- |
| O=S(=O)(Oc1cc(-c2ccccn2)[nH]n1)c1ccc(F)cc1 | 82.9 |
| O=[N+]([O-])c1ccccc1S(=O)(=O)Oc1cc(-c2ccccn2)[nH]n1 | 12 |
| O=S(=O)(Oc1cc(-c2ccccn2)[nH]n1)c1ccccc1 | 69.5 |

Second part, the compound after the results:

| IC50 [µM] | SMILES |
| --- | --- |
| 44.6 | COc1ccc(S(=O)(=O)Oc2cc(CSc3ccccn3)[nH]n2)cc1 |
| 32.3 | Cc1ccc(S(=O)(=O)Oc2cc(-c3ccccn3)[nH]n2)cc1 |
| 5.97 | O=[N+]([O-])c1ccc(S(=O)(=O)Oc2cc(CSc3ccccn3)[nH]n2)cc1 |

Tested on: not listed separately
Test: Cytotoxicity against human HepG2(2.2.15) cells assessed as reduction in cell viability after 72 hrs by MTS assay
Format: cell-based
Conditions: HepG2(2.2.15) cells, read-out: TC50

| SMILES | CC50 at 72 h [µM] |
| --- | --- |
| O=S(=O)(Oc1cc(-c2ccccn2)[nH]n1)c1ccc(F)cc1 | 254 |
| COc1ccc(S(=O)(=O)Oc2cc(CSc3ccccn3)[nH]n2)cc1 | 90.2 |
| O=[N+]([O-])c1ccc(S(=O)(=O)Oc2cc(-c3ccccn3)[nH]n2)cc1 | 787 |
| Cc1ccc(S(=O)(=O)Oc2cc(-c3ccccn3)[nH]n2)cc1 | 217 |
| O=[N+]([O-])c1ccccc1S(=O)(=O)Oc1cc(-c2ccccn2)[nH]n1 | 326 |
| O=[N+]([O-])c1ccc(S(=O)(=O)Oc2cc(CSc3ccccn3)[nH]n2)cc1 | 38.2 |
| Nc1ccn([C@H]2CS[C@@H](CO)O2)c(=O)n1 | 352 |
| O=S(=O)(Oc1cc(-c2ccccn2)[nH]n1)c1ccccc1 | 135 |
| O=S(=O)(Oc1cc(-c2ccccn2)[nH]n1)c1ccc(Br)cc1 | 809 |
| CS(=O)(=O)Oc1cc(-c2ccccn2)[nH]n1 | 1060 |

Same assay, conditions: hepg2 2.2.15, 72 h

| SMILES | Activity |
| --- | --- |
| O=S(=O)(Oc1cc(-c2ccccn2)[nH]n1)c1ccc(F)cc1 | Dose-dependent effect |
| COc1ccc(S(=O)(=O)Oc2cc(CSc3ccccn3)[nH]n2)cc1 | Dose-dependent effect |
| O=[N+]([O-])c1ccc(S(=O)(=O)Oc2cc(-c3ccccn3)[nH]n2)cc1 | Dose-dependent effect |
| Cc1ccc(S(=O)(=O)Oc2cc(-c3ccccn3)[nH]n2)cc1 | Dose-dependent effect |
| O=[N+]([O-])c1ccccc1S(=O)(=O)Oc1cc(-c2ccccn2)[nH]n1 | Dose-dependent effect |
| O=[N+]([O-])c1ccc(S(=O)(=O)Oc2cc(CSc3ccccn3)[nH]n2)cc1 | Dose-dependent effect |
| O=S(=O)(Oc1cc(-c2ccccn2)[nH]n1)c1ccccc1 | Dose-dependent effect |
| O=S(=O)(Oc1cc(-c2ccccn2)[nH]n1)c1ccc(Br)cc1 | Dose-dependent effect |
| CS(=O)(=O)Oc1cc(-c2ccccn2)[nH]n1 | Dose-dependent effect |

Tested on: not listed separately
Test: Selectivity index, ratio of TC50 for human HepG2(2.2.15) cells to IC50 for HBV infected in human HepG2(2.2.15) cells assessed as inhibition of viral DNA replication
Conditions: not given

| SMILES | Selectivity Index |
| --- | --- |
| O=S(=O)(Oc1cc(-c2ccccn2)[nH]n1)c1ccc(F)cc1 | 2.76 |
| COc1ccc(S(=O)(=O)Oc2cc(CSc3ccccn3)[nH]n2)cc1 | 2.37 |
| Cc1ccc(S(=O)(=O)Oc2cc(-c3ccccn3)[nH]n2)cc1 | 6.92 |
| O=[N+]([O-])c1ccccc1S(=O)(=O)Oc1cc(-c2ccccn2)[nH]n1 | 35.46 |
| O=[N+]([O-])c1ccc(S(=O)(=O)Oc2cc(CSc3ccccn3)[nH]n2)cc1 | 6.88 |
| O=S(=O)(Oc1cc(-c2ccccn2)[nH]n1)c1ccccc1 | 2.07 |

Tested on: Hepatitis B virus
Test: Antiviral activity against HBV infected in human HepG2(2.2.15) cells assessed as inhibition of viral DNA replication after 48 hrs by SYBR Green based RT-PCR method
Format: functional, organism-based
Conditions: HepG2 2.2.15, 48 h

| SMILES | IC50 [µM] |
| --- | --- |
| O=S(=O)(Oc1cc(-c2ccccn2)[nH]n1)c1ccc(F)cc1 | 92.1 |
| O=[N+]([O-])c1ccccc1S(=O)(=O)Oc1cc(-c2ccccn2)[nH]n1 | 9.19 |
| O=S(=O)(Oc1cc(-c2ccccn2)[nH]n1)c1ccccc1 | 65.3 |

Next, values leading:

| IC50 [µM] | SMILES |
| --- | --- |
| 38.1 | COc1ccc(S(=O)(=O)Oc2cc(CSc3ccccn3)[nH]n2)cc1 |
| 31.3 | Cc1ccc(S(=O)(=O)Oc2cc(-c3ccccn3)[nH]n2)cc1 |
| 5.56 | O=[N+]([O-])c1ccc(S(=O)(=O)Oc2cc(CSc3ccccn3)[nH]n2)cc1 |
| 2.09 | Nc1ccn([C@H]2CS[C@@H](CO)O2)c(=O)n1 |

Tested on: not listed separately
Test: Selectivity index, ratio of TC50 for human HepG2(2.2.15) cells to IC50 for HBV infected in human HepG2(2.2.15) cells assessed as inhibition of HBeAg secretion
Conditions: not given

| SMILES | Selectivity Index |
| --- | --- |
| O=S(=O)(Oc1cc(-c2ccccn2)[nH]n1)c1ccc(F)cc1 | 3.06 |
| COc1ccc(S(=O)(=O)Oc2cc(CSc3ccccn3)[nH]n2)cc1 | 2.02 |
| Cc1ccc(S(=O)(=O)Oc2cc(-c3ccccn3)[nH]n2)cc1 | 6.71 |
| O=[N+]([O-])c1ccccc1S(=O)(=O)Oc1cc(-c2ccccn2)[nH]n1 | 27.11 |
| O=[N+]([O-])c1ccc(S(=O)(=O)Oc2cc(CSc3ccccn3)[nH]n2)cc1 | 6.41 |
| O=S(=O)(Oc1cc(-c2ccccn2)[nH]n1)c1ccccc1 | 1.94 |

Tested on: Hepatitis B virus
Test: Antiviral activity against HBV infected in human HepG2(2.2.15) cells assessed as inhibition of HBsAg secretion by enzyme immunoassay
Format: functional, organism-based
Conditions: not given

| SMILES | IC50 [µM] |
| --- | --- |
| O=S(=O)(Oc1cc(-c2ccccn2)[nH]n1)c1ccc(F)cc1 | 45.9 |
| O=[N+]([O-])c1ccccc1S(=O)(=O)Oc1cc(-c2ccccn2)[nH]n1 | 7.48 |
| O=S(=O)(Oc1cc(-c2ccccn2)[nH]n1)c1ccccc1 | 137 |
| CS(=O)(=O)Oc1cc(-c2ccccn2)[nH]n1 | 287 |

Further lines, results first:

| IC50 [µM] | SMILES |
| --- | --- |
| 14.5 | COc1ccc(S(=O)(=O)Oc2cc(CSc3ccccn3)[nH]n2)cc1 |
| 125 | O=[N+]([O-])c1ccc(S(=O)(=O)Oc2cc(-c3ccccn3)[nH]n2)cc1 |
| 23.2 | Cc1ccc(S(=O)(=O)Oc2cc(-c3ccccn3)[nH]n2)cc1 |
| 4.8 | O=[N+]([O-])c1ccc(S(=O)(=O)Oc2cc(CSc3ccccn3)[nH]n2)cc1 |
| 210 | O=S(=O)(Oc1cc(-c2ccccn2)[nH]n1)c1ccc(Br)cc1 |
